Experimental data: US20110251220A1, “Pharmaceutical compositions comprising gamma secretase modulators” (priority 2008, published 2011)

How the values were obtained:
MM cells = experiment: Proliferation assay (CellTiter-Glo), concentration of 50% growth inhibition; assay type: cell-based; settings: Homo sapiens; read-out: Concentration at which 50% cell growth inhibition was observed
Description: Human MM cell lines used were as follows: NCI-H929, OPM-2, LP-1, RPMI-8226, U266 (DSMZ, Braunschweig, Germany). Cell lines were cultured in RPMI 1640 medium (Biochrom, Berlin, Germany) supplemented with 10% heat-inactivated fetal calf serum (FCS, Gibco, Karlsruhe, Germany), 1 mM sodium pyruvate and 100 units/ml penicillin and 100 μg/ml streptomycin (Gibco). Human osteoclasts were obtained as described in the reference of Zavrski I, Krebbel H, Wildemann B, et al. Proteasome inhibitors abrogate osteoclast differentiation and osteoclast function. Biochem Biophys Res Commun. 2005; 333:200-205. Briefly, peripheral blood mononuclear cells (PBMC) were isolated from whole blood of healthy volunteers, using a Ficoll-Hypaque density gradient. The adherent fraction of the isolated mononuclear cells was cultured for 21 days in MEM medium (Sigma-Aldrich Chemie, Taufkirchen, Germany) supplemented with 10% FCS, 100 U/ml penicillin, 100 μg/ml streptomycin, 50 ng/ml M-CSF, and 25 ng/ml RANKL (osteoclastogenic medium), before coculture experiments and treatment with the inventive compounds started. Human osteoblasts were obtained according to Robey P G, Termine J D. Human bone cells in vitro. Calcif Tissue Int. 1985; 37:453-460 as described in Hecht M, Heider U, Kaiser M, von Metzler I, Sterz J, Sezer O. Osteoblasts promote migration and invasion of myeloma cells through upregulation of matrix metalloproteinases, urokinase plasminogen activator, hepatocyte growth factor and activation of p38 MAPK. Br J Haematol. 2007; 138: 446-458. Briefly, trabecular bone specimens from patients without malignant disease undergoing knee or hip surgery were minced and washed to remove bone marrow cells. The bone fragments were resuspended in Dulbecco's modified Eagle's medium (DMEM)/HAM's F12 medium (Biochrom, Berlin, Germany) supplemented with 10% FCS and cultured in tissue culture flasks until a confluent cell monolayer was obtained. Culturing of functional osteoblasts was confirmed by alkaline phosphatase (ALP) staining (kit from Sigma, USA), realtime RT-PCR analysis of expression of osteoblast markers (ALP, osteocalcin) and by von-Kossa staining before coculture and treatment experiments were started.
The compound according to example 1, hereinafter referred to as GSI15, (compound RH02015SC, Maybridge, Acros Organics, Geel, Belgium) was freshly dissolved as 26 mM stock solution in Dimethylsulfoxide (DMSO). Multiple myeloma therapeutics used were melphalan (marketed as Alkeran®, GlaxoSmithKline, Munich, Germany) and bortezomib (marketed as Velcade®, Janssen-Cilag, Neuss, Germany). Melphalan was freshly dissolved at 10 mg/ml in 0.9% NaCl-solution. Bortezomib was freshly dissolved at 100 ng/ml in 0.9% NaCl solution. Gamma Secretase Inhibitor (GSI) treatment for apoptosis assessment by AnnexinV/PI staining, cell cycle analysis and coculture experiments was performed in 6-well plates. GSI15 stock solution was added directly to the cell suspension. GSI treatment for assaying proliferation was performed in 96-well plates. 10,000 cells per well were seeded in 50 μl medium per well before 50 μl of a 2× solution of GSI15 prediluted in medium were added per well. […]
For assaying proliferation/viability of cells CellTiter-Glo Luminescent Cell Viability Assay (Promega, Mannheim, Germany) was used. In this assay the number of viable cells at a given time point is determined by quantification of ATP present, which serves as a measure of metabolically active cells. […]

male Sprague-Dawley rats = experiment: PAN-model of albuminuric glomerular disease; assay type: in vivo, rat; settings: day 5, 500 μg/100 g rat i.p. once per day, compared to PAN alone
Description: For the in vivo studies male Sprague-Dawley rats were purchased from Charles River and treated with puromycin aminoglycoside (PAN) to induce albuminuric glomerular disease as described previously (Niranjan et al., “The Notch pathway in podocytes plays a role in the development of glomerular disease.” Nat. Med. 14: 290-298, 2008). Rats were injected PAN (150 mg/kg) once. The test compounds were administered intraperitoneally (500 μg/100 g rat) once per day (n=4 animals per group). Injection of test compounds were started one day after PAN injection. All studies were performed in accordance with the European Union normative. As a positive control one group of rats received gamma secretase inhibitor DAPT.
Urinary albumine was measured at the indicated days as described previously (Sanchez-Nino et al., “The MIF receptor CD74 in diabetic podocyte injury”. J. Am. Soc. Nephrol. 20: 353-362, 2009). For total protein measurement urine samples were centrifuged and pellets were diluted in distilled water. Exton reagent (230 mM sulfosalic acid, 1.4 M sodium sulfate) was added and after 10 minutes absorbance was measured at 620 nm.

human podocyte cell line = experiment: TGFβ-induced apoptosis in human podocyte cell line (Cell Death Detection ELISA); assay type: cell-based
Description: The percentage of the apoptotic cells was determined after 24 hours using the Cell Death Detection ELISA (Roche Diagnostics, Mannheim, Germany) according to the manufaturer's protocol.

OPM-2 cells = experiment: Apoptosis by AnnexinV-FITC/PI staining, OPM-2; assay type: cell-based, human; settings: for cell death: OPM-2, 24 h or 48 h, single agent
Description: The compound according to example 1, hereinafter referred to as GSI15, (compound RH02015SC, Maybridge, Acros Organics, Geel, Belgium) was freshly dissolved as 26 mM stock solution in Dimethylsulfoxide (DMSO). Multiple myeloma therapeutics used were melphalan (marketed as Alkeran®, GlaxoSmithKline, Munich, Germany) and bortezomib (marketed as Velcade®, Janssen-Cilag, Neuss, Germany). Melphalan was freshly dissolved at 10 mg/ml in 0.9% NaCl-solution. Bortezomib was freshly dissolved at 100 ng/ml in 0.9% NaCl solution. Gamma Secretase Inhibitor (GSI) treatment for apoptosis assessment by AnnexinV/PI staining, cell cycle analysis and coculture experiments was performed in 6-well plates. GSI15 stock solution was added directly to the cell suspension. GSI treatment for assaying proliferation was performed in 96-well plates. 10,000 cells per well were seeded in 50 μl medium per well before 50 μl of a 2× solution of GSI15 prediluted in medium were added per well. Melphalan and bortezomib treatment as well as their combination with GSI15 for assaying apoptosis by AnnexinV/PI staining was done in 6-well plates. All inhibitors were added directly to the cells in 6-well plates.
For cell cycle analysis 2×10^5 cells were spun down, medium was aspirated and cells washed with PBS. Cells were then resuspended in 250 μl PBS. 1 ml ice-cold 70% ethanol was added, followed by overnight incubation at −20° C. Cells were spun down, the pellet washed with PBS and then resuspended in 200 μl PBS containing 0.15 mg/ml RNaseA and 30 μg/ml propidium iodide (PI). After 10 minutes incubation in the dark at room temperature, cells were analyzed by flow cytometry. The amount of apoptotic cells was determined by AnnexinV/propidium iodide staining using Human AnnexinV-FITC Kit (Bender Medsystems, Vienna, Austria), according to manufacturer's protocol. Briefly, 2×10^5 cells were spun down and washed with PBS, followed by 10 minutes incubation in binding buffer containing AnnexinV-FITC conjugate. Cells were then spun down again, resuspended in binding buffer containing PI and analyzed by flow cytometry.

`CC(Sc1nc(=O)cc(N)n1CCc1ccccc1)C(=O)Nc1cccc(Cl)c1` (stereo not shown) [Example 4, 2-(6-amino-4-oxo-1-phenethyl-1,4-dihydropyrimidin-2-ylthio)-N-(3-chlorophenyl)propanamide] was tested. Which IC50 (MM cells) did it give?
Its IC50 is 20 µM.

With `CC(C)(C)c1ccc(Oc2ncccc2NS(=O)(=O)c2ccccc2C(F)(F)F)cc1` [Example 2, N-(2-(4-tert-butylphenoxy)pyridin-3-yl)-2-(trifluoromethyl)benzenesulfonamide] as the compound, how does the inhibition of albuminuria (male Sprague-Dawley rats) read?
Its inhibition of albuminuria is 42%.

And the inhibition of proteinuria (male Sprague-Dawley rats)?
Its inhibition of proteinuria is 37%.

What about the “effect in podocyte cell culture experiments” value (human podocyte cell line) of the same compound?
Its value is “positive effect”.

And the inhibition at 3 µM (human podocyte cell line; Homo sapiens, 3 μM, compared to TGFβ alone, 24 hours)?
The inhibition at 3 µM was 27%.

What about the inhibition at 10 µM (human podocyte cell line; Homo sapiens, 10 μM, compared to TGFβ alone, 24 hours) of the same compound?
The inhibition at 10 µM was 27%.

And the IC50 (MM cells)?
Its IC50 is 30 µM.

`Nc1cc(=O)nc(SCC(=O)Nc2ccc(Cl)cc2)n1CCc1ccccc1` [Example 5, 2-(6-amino-4-oxo-1-phenethyl-1,4-dihydropyrimidin-2-ylthio)-N-(4-chlorophenyl)acetamide] was tested. Which IC50 (MM cells) did it give?
Its IC50 is 20 µM.

With `C[C@H](NC(=O)Cc1cc(F)cc(F)c1)C(=O)N[C@H](C(=O)OC(C)(C)C)c1ccccc1` [DAPT, reference compound] as the compound, how does the inhibition of apoptosis (human podocyte cell line; 1 μM, compared to TGFβ alone, 24 hours) read?
Its inhibition of apoptosis is 37%.

How did the IC50 (MM cells) turn out when `Cc1ccc(Sc2ncccc2NS(=O)(=O)c2ccc(Cl)cc2)cc1` [Example 3, 4-chloro-N-(2-(p-tolylthio)pyridin-3-yl)benzenesulfonamide] was run?
Its IC50 is 30 µM.

How did the cell death (OPM-2 cells) turn out when `CC(C)C[C@H](NC(=O)[C@H](Cc1ccccc1)NC(=O)c1cnccn1)B(O)O` [bortezomib] was run?
The cell death was “dose-dependently triggered cell death”.

`N[C@@H](Cc1ccc(N(CCCl)CCCl)cc1)C(=O)O` [melphalan] was tested. Which apoptotic cells (OPM-2 cells; OPM-2, 50 μM melphalan alone, 24 h) did it give?
The apoptotic cells was 32%.

And the cell death (OPM-2 cells)?
Its cell death is “dose-dependently triggered cell death”.
